The text below walks through data of paper PMC3298755 (Nature Chemical Biology, 2011).

The subject of assay [1] is COX-2 in stimulated DRGs. It is filed as cell-based, mouse. The settings on record: read-out: IC50 for inhibition of 2-AG oxidation in DRGs.
Assay [2] concerns COX-2 in stimulated DRGs. It is filed as cell-based, mouse. The conditions noted are these: read-out: IC50 for inhibition of AEA oxidation in DRGs.
Assay [3] has as its system COX-2 in stimulated DRGs. It is filed as cell-based, mouse.
The next assay has as its system stimulated DRGs. Kind of assay: Substrate levels. Format: cell-based, mouse.
The next assay has as its system FAAH. The conditions noted are these: read-out: IC50, FAAH inhibition; in vitro; ref [29]; cited from earlier work.
The next assay deals with T1, mCOX-2 (Mus musculus, UniProt Q05769).
T1 sequence (Q05769 18-604): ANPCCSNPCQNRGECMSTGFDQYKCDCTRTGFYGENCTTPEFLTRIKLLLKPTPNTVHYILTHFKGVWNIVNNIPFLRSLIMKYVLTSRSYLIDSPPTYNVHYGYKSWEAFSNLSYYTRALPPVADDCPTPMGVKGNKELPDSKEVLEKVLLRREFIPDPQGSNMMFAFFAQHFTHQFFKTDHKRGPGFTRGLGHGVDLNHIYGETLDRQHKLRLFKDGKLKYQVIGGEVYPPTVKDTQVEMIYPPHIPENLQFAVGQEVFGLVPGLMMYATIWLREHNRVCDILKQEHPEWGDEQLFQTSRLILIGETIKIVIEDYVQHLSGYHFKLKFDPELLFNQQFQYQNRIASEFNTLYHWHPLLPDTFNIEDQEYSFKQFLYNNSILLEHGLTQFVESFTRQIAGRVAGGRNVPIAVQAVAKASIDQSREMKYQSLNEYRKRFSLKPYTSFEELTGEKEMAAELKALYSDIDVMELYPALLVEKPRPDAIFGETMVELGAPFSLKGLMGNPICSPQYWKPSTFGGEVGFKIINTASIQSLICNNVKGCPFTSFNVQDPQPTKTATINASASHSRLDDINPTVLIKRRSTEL
The assay is described as follows: Inhibition of COX-2 oxygenation of AA, PG formation by LC-MS-MS. Format: biochemical.

Where two headings read alike, the source gives them in different places. A value given as a limit tells only on which side of the number the result lay.

With `C[C@@H](C(=O)O)c1ccc(-c2ccccc2)c(F)c1` [(R)-flurbiprofen], the IC50 with COX-2 in stimulated DRGs [1] is 5.8 ± 2.9 µM; in the assay on COX-2 in stimulated DRGs [2], 6 ± 2.7 µM; in the assay with FAAH it was > 1000 µM. For the same molecule, the “Inhibition of the synthesis of PGs in DRGs” value in the assay on COX-2 in stimulated DRGs [3] was “did not inhibit”. The “Amount of 2-AG in cell extracts” value in the assay with stimulated DRGs is on record as “increased”. Further, the “Amount of AA in cell extracts” value in the assay on stimulated DRGs is recorded as “did not increase”. In addition, in the assay with stimulated DRGs, the “Amount of AEA in cell extracts” value is recorded as “increased”.

On to `CC(C)Cc1ccc([C@@H](C)C(=O)O)cc1` [(R)-ibuprofen], for which, in the assay with stimulated DRGs, the “Amount of 2-AG in cell extracts” value is “increased”, the “Amount of AA in cell extracts” value is “did not increase” and the “Amount of AEA in cell extracts” value is given as “increased”.

`COc1ccc2cc([C@@H](C)C(=O)O)ccc2c1` [(R)-naproxen]: on mCOX-2 (at either 5 or 50 μM substrate concentrations), the “Inhibition of AA oxidation by COX-2” value was “did not inhibit”. For the same molecule, the “Inhibition of the synthesis of PGs in DRGs” value in the assay on COX-2 in stimulated DRGs [3] (stimulated DRGs, at concentrations that inhibited PG-G and PG-EA synthesis) is on record as “did not inhibit”. For the same molecule, in the assay with stimulated DRGs, the “Amount of 2-AG in cell extracts” value is reported as “increased”, the “Amount of AA in cell extracts” value is reported as “did not increase” and the “Amount of AEA in cell extracts” value was “increased”.

Consider `Cc1ccc(Nc2c(F)cccc2Cl)c(CC(=O)O)c1` [Lumiracoxib], for which, at mCOX-2 (50 μM AA, 15 min pre-incubation, 30 s reaction, LC-MS-MS), the “IC50, inhibition of COX-2 oxygenation of AA (result in words)” value is “no inhib”.
